Measurements as given in patent US12409192B2, “Traditional Chinese medicine composition and use thereof” (JIANGSU KANION PHARMACEUTICAL CO., LTD, priority 2021, dated 2025).

Test system: fever induced by dry yeast in rats
Assay: Dry yeast-induced fever in rats
Format: in vivo
Conditions: composition 3.34 g crude drugs/kg, aspirin 0.20 g/kg, X ± SD, n = 10
Protocol: Male SD rats, weighing 180-220 g were fed adaptively for 1 week, with the environmental temperature maintained at 20-25° C. The rectal temperature of the rats was measured once daily at 10:00 am for two consecutive days to acclimate them to this procedure. The average of the two temperature measurements was taken as the baseline temperature. Rats with a temperature range of 37.0-38.6° C. and a fluctuation <0.5° C. were selected for the experiment. Each rat was subcutaneously injected with 10 ml/kg of a 20% suspension of dry yeast to induce fever. (Preparation method: 120 g of dry yeast was weighed and placed in a mortar, gradually adding distilled water to grind into a uniform suspension, and then adjusted to a volume of 600 mL, prepare this solution fresh.) Six hours after injecting the yeast suspension, the body temperature of the rats was measured. One hundred and seventy rats with a temperature increase ranging from 1.0 to 2.2 degrees Celsius were selected and randomly divided into 17 groups based on their temperatures. […] Each group was orally gavaged with the corresponding solvent or drug, and rectal temperature was measured at 1 h, 2 h, 3 h, 4 h, and 5 h after administration to calculate the temperature difference from baseline.
Male SD rats, weighing 180-220 g were fed adaptively for 1 week, with the environmental temperature maintained at 20-25° C. The rectal temperature of the rats was measured once daily at 10:00 am for two consecutive days to acclimate them to this procedure. The average of the two temperature measurements was taken as the baseline temperature. Rats with a temperature range of 37.0-38.6° C. and a fluctuation <0.5° C. were selected for the experiment. Each rat was subcutaneously injected with 10 ml/kg of a 20% suspension of dry yeast to induce fever. (Preparation method: 120 g of dry yeast was weighed and placed in a mortar, gradually adding distilled water to grind into a uniform suspension, and then adjusted to a volume of 600 mL, prepare this solution fresh.) Six hours after injecting the yeast suspension, the body temperature of the rats was measured. Ninety rats with a temperature increase ranging from 1.0 to 2.2 degrees Celsius were selected and randomly divided into 9 groups based on their temperatures. These groups were as follows: (1) Model group: administered distilled water, (2) 7 batches of traditional Chinese medicine groups P-V: dosage of 3.34 g crude drugs/kg, (3) Positive control group: administered aspirin suspension, dosage of 0.20 g/kg. Each group was orally gavaged with the corresponding solvent or drug, and rectal temperature was measured at 1 h, 2 h, 3 h, 4 h, and 5 h after administration to calculate the temperature difference from baseline.

CC(=O)Oc1ccccc1C(=O)O [Aspirin, aspirin]
Temperature rise degrees after administration of medication (ΔT), 1 h (1 h after oral gavage): 0.40 ± 0.24 degrees
Temperature rise degrees after administration of medication (ΔT), 2 h (2 h after oral gavage): 0.34 ± 0.37 degrees
Temperature rise degrees after administration of medication (ΔT), 3 h (3 h after oral gavage): 0.27 ± 0.28 degrees
Temperature rise degrees after administration of medication (ΔT), 4 h (4 h after oral gavage): 0.22 ± 0.23 degrees
Temperature rise degrees after administration of medication (ΔT), 5 h (5 h after oral gavage): 0.22 ± 0.24 degrees
Degrees of temperature rise after administration of medication (ΔT), 1 h (verification study, 1 h after oral gavage): 0.42 ± 0.34 Degrees
Degrees of temperature rise after administration of medication (ΔT), 2 h (verification study, 2 h after oral gavage): 0.42 ± 0.31 Degrees
Degrees of temperature rise after administration of medication (ΔT), 3 h (verification study, 3 h after oral gavage): 0.34 ± 0.31 Degrees
Degrees of temperature rise after administration of medication (ΔT), 4 h (verification study, 4 h after oral gavage): 0.23 ± 0.30 Degrees
Degrees of temperature rise after administration of medication (ΔT), 5 h (verification study, 5 h after oral gavage): 0.17 ± 0.13 Degrees
